Measured values as given in patent publication US9193697B2, “Oxazole derivatives useful as modulators of FAAH” (MERCK SHARP & DOHME CORP., priority 2010, dated 2015).

What was measured:
[1] = biological target: T1, human FAAH (Fatty Acid Amide Hydrolase) (Homo sapiens (Human), UniProt O00519); experiment: FAAH inhibition, human FAAH CHO cell lysate (AAMCA fluorescence); assay type: biochemical
From the text: To assist in assay development stable cell lines for human, murine and rat full length FAAH were developed. […] The full length FAAH was subcloned into the mammalian expression vector, pcDEF.neo, using XbaI and EcoRI restriction sites and used for stable cell line generation.
The full length murine FAAH was subcloned into the mammalian expression vector, pcDEFneo using either EcoRI (murine) or KpnI and EcoRI (rat) restriction sites. Chinese hamster ovary cells (CHO) were transfected following manufacturers protocol (AMAXA). Forty eight hours post transfection, cells were trypsinized and transferred to 96 well plates in Iscove's DMEM media supplemented with 2 mM Glutamine, 10% fetal calf serum, 1 mg/ml geneticin and HT Supplement (0.1 mM sodium hypoxanthine, 0.016 mM thymidine) in order to isolate single clones. […] Following removal of tissue culture media cells were dislodged following addition of Cellstripper (Mediatech, Inc. Manassas, Va.) and transferred to 96 well black clear bottom assay plate, centrifuged at 1,000 rpm for 3 mins and media removed and replaced with assay buffer (50 mM Tris pH8.0, 1 mM EDTA, 0.1% fatty acid free BSA). The reaction was initiated by addition of fluorescent substrate, AMC Arachidonoyl Amide (Cayman Chemical, Ann Arbor, Mich.) to 1 μM and reaction allowed to proceed for 2 hours at room temperature. Release of fluorescence was monitored in a CytoFluor Multiplate Reader.
CHO cells expressing FAAH were used to prepare either crude cell lysate or microsome fractions. To harvest cells, tissue culture media was decanted, the monolayer washed three times with Ca^++Mg^++ free PBS and cells recovered after 15 min in enzyme free dissociation media (Millipore Corp, Billerica, Mass.). Cells were collected by centrifuging at 2000 rpm for 15 min, and the cell pellet re-suspended with 50 mM HEPES (pH 7.4) containing 1 mM EDTA and the protease inhibitors aprotinin (1 mg/ml) and leupeptin (100 μM). The suspension was sonicated at 4° C. and the cell lysate recovered after centrifuging at 12,000×g (14,600 rpm, SS34 rotor) for 20 min at 4° C. to form a crude pellet of cell debris, nuclei, peroxisomes, lysosomes, and mitochondria; the supernatant or cell lysate was used for FAAH enzyme assay. In some eases, microsomes fractions enriched in FAAH were prepared by centrifuging the cell lysate further at 27,000 rpm (100,000×g) in SW28 rotor for 50 minutes at 4° C. The pellet containing FAAH-enriched microsomes was re-suspend in 50 mM HEPES, (pH 7.4) 1 mM EDTA, and any remaining DNA sheared by passage of material through a 23 gauge needle and aliquots of enzyme were store at −80° C. prior to use.
Assays are performed on either cell lysate or microsome fractions prepared as described or in whole cell format employing either the fluorescent substrate AAMCA (Cayman chemical, Ann Arbor, Mich.,) or ^3H-anandamide ([ETHANOLAMINE-1-3H] American Radiolabeled Chemicals; 1 mCi/ml). […] AAMCA substrate was used to achieve a final concentration of 1 μM and reaction allowed to proceed at room temperature for 1-3 hours. […] Whole cell assay is conducted with cells harvested after rinsing tissue culture flasks three times with Ca^++Mg^++ free PBS, incubating for 10 min in Enzyme free dissociation media and centrifuging for 5 minutes at 1,000 rpm in table top centrifuge. Cells are resuspended in assay buffer at desired cell number in (4×10^4 cells/assay in 96-well format; 1×10^4 cells/assay in 384-well format) and assayed as described.
Alternatively, assays are performed using anandamide [ethanolamine 1-^3H] (specific activity of 10 Ci/mmol) diluted with cold anandamide to achieve a final assay concentration of 1 μM anandamide (˜50,000 cpm). Enzyme (CHO cell lysate, brain or liver homogenate) is incubated in assay buffer (50 mM Phosphate, pH 8.0, 1 mM EDTA, 200 mM KCl, 0.2% glycerol, 0.1% fatty acid free BSA) with inhibitor at 25° C. for 30 minutes.

[2] = biological target: T1, human FAAH (Fatty Acid Amide Hydrolase); experiment: FAAH inhibition, human FAAH CHO whole cell format; assay type: cell-based

T1 sequence (O00519 whole entry): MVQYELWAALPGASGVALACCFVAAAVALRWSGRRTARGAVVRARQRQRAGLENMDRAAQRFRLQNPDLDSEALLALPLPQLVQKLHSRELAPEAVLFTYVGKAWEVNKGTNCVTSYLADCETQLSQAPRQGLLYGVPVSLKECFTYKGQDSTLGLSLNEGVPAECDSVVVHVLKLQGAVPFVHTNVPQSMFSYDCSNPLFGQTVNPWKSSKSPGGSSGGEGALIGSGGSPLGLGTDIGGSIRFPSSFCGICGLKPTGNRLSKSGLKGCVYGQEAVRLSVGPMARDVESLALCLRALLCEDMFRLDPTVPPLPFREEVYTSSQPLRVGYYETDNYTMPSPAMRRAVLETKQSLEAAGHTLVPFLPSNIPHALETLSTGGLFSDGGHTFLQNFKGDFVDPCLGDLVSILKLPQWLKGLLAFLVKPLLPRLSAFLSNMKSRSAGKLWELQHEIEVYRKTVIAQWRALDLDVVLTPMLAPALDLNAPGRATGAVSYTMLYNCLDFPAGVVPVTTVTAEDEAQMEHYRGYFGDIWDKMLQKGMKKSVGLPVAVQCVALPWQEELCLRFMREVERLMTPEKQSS

For `C[S+]([O-])c1ccc(-c2nc(C3=CCOCC3)oc2Sc2ccc(Cl)cc2)cc1` (centres unmarked) [Example C6.3, 5-[(4-chlorophenyl)sulfanyl]-2-(3,6-dihydro-2H-pyran-4-yl)-4-[4-(methylsulfinyl)phenyl]-1,3-oxazole], the IC50 [1] was 15.9 nM and the IC50 [2] was 31 nM.
